Results: ChEMBL document CHEMBL1909046, “DrugMatrix in vitro pharmacology data”
pIC50, pKi: −log10 of the molar value.

Assays:
[1] = molecular target: Sodium-dependent noradrenaline transporter (Homo sapiens, UniProt P23975); test: DRUGMATRIX: Norepinephrine Transporter radioligand binding (ligand: [125I] RTI-55); format: cell membranes, MDCK, Membrane; details: Not Active = under 50% inhibition at 10 µM; for IC50 / Ki: mdck
Substance-P receptor = Substance-P receptor (Homo sapiens, UniProt P25103); format: cell membranes, Membrane; details: cho; further: in other assays of this panel Not Active means under 50% inhibition at 10 µM
Chain of Substance-P receptor (P25103 whole entry): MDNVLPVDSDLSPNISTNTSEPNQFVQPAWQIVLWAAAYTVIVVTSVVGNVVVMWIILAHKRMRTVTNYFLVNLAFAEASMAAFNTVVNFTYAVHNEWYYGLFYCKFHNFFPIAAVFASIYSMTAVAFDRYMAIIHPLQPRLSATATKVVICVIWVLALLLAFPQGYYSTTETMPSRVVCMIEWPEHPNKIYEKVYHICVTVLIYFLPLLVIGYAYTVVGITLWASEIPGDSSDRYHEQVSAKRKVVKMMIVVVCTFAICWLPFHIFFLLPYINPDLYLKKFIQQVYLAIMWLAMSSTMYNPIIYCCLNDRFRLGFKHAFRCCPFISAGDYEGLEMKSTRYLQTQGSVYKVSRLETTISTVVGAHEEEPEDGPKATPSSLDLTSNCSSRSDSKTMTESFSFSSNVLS

Endothelin-1 receptor = molecular target: T1, Endothelin-1 receptor (Homo sapiens, UniProt P25101); format: cell membranes, Membrane; details: cho-k1; further: in other assays of this panel Not Active means under 50% inhibition at 10 µM
T1 sequence (P25101 whole entry): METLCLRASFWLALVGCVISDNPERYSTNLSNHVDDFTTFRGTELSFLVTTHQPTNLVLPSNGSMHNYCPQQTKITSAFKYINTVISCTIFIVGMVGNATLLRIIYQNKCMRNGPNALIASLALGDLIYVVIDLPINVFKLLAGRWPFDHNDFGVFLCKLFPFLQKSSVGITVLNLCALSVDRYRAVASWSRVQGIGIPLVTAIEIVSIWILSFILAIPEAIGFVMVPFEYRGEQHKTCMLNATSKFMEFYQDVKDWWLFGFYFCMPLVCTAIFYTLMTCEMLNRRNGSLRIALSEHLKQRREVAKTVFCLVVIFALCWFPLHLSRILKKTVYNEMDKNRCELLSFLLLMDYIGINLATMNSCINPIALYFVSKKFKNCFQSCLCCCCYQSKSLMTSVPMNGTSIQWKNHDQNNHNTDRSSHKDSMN

[2] = DRUGMATRIX: Glutamate, NMDA, Phencyclidine radioligand binding (ligand: [3H] TCP); format: cell membranes, Rattus norvegicus, Wistar, Cerebral cortex, Membrane; details: Not Active = under 50% inhibition at 10 µM
Melanocortin receptor 5 = Melanocortin receptor 5 (Homo sapiens, UniProt P33032); format: cell membranes, HEK293, Membrane; details: hek293; further: in other assays of this panel Not Active means under 50% inhibition at 10 µM
Chain of Melanocortin receptor 5 (P33032 whole entry): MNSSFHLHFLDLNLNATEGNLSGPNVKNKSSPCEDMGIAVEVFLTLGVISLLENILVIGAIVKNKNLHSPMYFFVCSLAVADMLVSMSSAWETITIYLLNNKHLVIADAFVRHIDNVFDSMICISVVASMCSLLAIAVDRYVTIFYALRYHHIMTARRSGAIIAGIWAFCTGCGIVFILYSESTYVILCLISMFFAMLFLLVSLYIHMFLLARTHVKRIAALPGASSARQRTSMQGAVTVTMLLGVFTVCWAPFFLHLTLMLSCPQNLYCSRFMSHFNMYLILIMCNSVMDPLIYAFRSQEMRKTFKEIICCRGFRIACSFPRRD

[3] = molecular target: T2, Neuropeptide Y receptor type 2 (Homo sapiens, UniProt P49146); format: cell membranes, Membrane; details: kan-ts; further: in other assays of this panel Not Active means under 50% inhibition at 10 µM
T2 sequence (P49146 whole entry): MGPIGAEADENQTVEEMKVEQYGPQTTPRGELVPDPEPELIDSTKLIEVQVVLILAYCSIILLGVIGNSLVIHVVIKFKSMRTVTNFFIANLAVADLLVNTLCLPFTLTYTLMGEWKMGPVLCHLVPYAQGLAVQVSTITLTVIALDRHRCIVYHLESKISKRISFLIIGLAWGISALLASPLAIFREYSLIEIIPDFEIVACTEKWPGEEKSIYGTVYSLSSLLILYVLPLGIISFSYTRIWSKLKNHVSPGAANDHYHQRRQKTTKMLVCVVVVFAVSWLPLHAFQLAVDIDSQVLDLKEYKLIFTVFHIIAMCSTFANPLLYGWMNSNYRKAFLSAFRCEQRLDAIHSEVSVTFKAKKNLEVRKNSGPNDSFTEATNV

Cytochrome P450 3A4 = Cytochrome P450 3A4 (Homo sapiens, UniProt P08684); details: bti-tn-5b1-4; further: in other assays of this panel Not Active means under 50% inhibition at 10 µM
Chain of Cytochrome P450 3A4 (P08684 whole entry): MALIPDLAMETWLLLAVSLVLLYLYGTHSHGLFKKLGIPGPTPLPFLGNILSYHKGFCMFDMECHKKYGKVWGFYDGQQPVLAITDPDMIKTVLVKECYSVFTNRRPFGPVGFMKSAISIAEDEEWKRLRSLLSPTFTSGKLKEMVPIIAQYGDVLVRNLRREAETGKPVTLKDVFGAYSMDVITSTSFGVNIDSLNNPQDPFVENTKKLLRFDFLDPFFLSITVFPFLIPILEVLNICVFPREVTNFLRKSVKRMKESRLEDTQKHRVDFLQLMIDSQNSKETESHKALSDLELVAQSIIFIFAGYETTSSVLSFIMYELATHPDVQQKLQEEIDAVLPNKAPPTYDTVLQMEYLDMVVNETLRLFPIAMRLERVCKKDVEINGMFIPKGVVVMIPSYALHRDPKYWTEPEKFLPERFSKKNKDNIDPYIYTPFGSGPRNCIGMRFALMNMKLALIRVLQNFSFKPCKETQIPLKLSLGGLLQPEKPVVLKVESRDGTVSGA

[4] = molecular target: Voltage-gated inwardly rectifying potassium channel KCNH2 (Homo sapiens, UniProt Q12809); details: hek293; further: in other assays of this panel Not Active means under 50% inhibition at 10 µM
Chain of Voltage-gated inwardly rectifying potassium channel KCNH2 (Q12809 whole entry): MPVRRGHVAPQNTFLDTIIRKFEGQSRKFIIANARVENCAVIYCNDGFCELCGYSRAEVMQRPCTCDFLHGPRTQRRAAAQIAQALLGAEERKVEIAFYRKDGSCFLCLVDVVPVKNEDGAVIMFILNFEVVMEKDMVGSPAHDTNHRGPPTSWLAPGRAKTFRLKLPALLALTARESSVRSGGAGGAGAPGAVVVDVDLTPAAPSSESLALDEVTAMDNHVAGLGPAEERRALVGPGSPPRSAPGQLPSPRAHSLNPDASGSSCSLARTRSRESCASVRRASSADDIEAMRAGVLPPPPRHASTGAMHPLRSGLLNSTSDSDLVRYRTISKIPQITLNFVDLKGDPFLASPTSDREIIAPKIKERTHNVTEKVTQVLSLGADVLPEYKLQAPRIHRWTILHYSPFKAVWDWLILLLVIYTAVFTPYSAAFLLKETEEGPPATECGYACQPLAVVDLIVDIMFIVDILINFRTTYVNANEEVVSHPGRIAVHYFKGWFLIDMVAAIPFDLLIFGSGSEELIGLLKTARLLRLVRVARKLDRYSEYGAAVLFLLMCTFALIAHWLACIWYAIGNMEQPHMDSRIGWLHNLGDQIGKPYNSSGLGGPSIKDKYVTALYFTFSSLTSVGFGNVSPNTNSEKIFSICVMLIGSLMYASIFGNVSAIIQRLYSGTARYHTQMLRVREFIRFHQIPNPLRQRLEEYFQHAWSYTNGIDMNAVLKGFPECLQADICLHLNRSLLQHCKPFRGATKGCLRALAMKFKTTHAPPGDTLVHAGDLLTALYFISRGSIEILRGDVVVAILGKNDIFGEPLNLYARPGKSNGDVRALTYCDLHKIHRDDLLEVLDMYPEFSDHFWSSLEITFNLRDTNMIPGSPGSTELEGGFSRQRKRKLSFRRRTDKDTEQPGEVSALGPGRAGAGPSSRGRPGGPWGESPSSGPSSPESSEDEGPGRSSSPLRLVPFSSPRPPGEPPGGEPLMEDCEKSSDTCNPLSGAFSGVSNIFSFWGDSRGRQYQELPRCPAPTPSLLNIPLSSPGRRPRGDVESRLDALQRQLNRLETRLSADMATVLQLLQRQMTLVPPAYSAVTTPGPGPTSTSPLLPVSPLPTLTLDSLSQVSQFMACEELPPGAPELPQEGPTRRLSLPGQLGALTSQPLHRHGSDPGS

Chain of Sodium-dependent noradrenaline transporter (P23975 whole entry): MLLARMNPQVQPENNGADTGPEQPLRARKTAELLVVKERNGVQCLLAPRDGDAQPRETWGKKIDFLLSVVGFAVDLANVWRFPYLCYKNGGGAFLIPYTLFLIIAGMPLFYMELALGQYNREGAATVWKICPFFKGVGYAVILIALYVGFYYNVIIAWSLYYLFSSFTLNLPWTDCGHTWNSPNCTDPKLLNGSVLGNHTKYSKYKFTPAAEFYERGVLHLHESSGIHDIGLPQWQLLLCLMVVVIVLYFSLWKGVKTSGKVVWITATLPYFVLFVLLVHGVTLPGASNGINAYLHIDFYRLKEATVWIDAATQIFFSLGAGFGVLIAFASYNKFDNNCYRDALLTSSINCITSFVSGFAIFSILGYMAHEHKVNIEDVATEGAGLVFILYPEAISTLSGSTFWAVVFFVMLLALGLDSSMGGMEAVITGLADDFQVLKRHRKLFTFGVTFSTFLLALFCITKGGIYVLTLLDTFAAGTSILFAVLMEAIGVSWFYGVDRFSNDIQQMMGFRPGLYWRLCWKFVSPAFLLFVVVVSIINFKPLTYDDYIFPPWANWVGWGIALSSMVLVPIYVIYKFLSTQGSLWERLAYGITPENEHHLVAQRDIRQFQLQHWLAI

Molecule	IC50 [1]	IC50 (Substance-P receptor)	IC50 (Endothelin-1 receptor)	IC50 [2]	Ki [2]	IC50 (Melanocortin receptor 5)	IC50 [3]	IC50 (Cytochrome P450 3A4)	Ki (Cytochrome P450 3A4)	IC50 [4]	Ki [4]	pIC50 ([1]; read-out: IC50)	pKi ([1]; read-out: Ki)	Ki [1]	Ki (Substance-P receptor)	Ki (Endothelin-1 receptor)	Ki (Melanocortin receptor 5)	Ki [3]
O=C(O)c1ccccc1 [BENZOIC ACID]	Not Active	Not Active	Not Active	Not Active	Not Active	Not Active	Not Active	Not Active	Not Active	Not Active	Not Active	–	–	–	–	–	–	–
c1ccc2c(c1)Nc1ccccc1S2 [PHENOTHIAZINE]	–	Not Active	Not Active	Not Active	Not Active	Not Active	Not Active	Not Active	Not Active	Not Active	Not Active	6.34	6.34	–	–	–	–	–
CHROMIC CHLORIDE	Not Active	Not Active	Not Active	Not Active	Not Active	Not Active	Not Active	Not Active	Not Active	Not Active	Not Active	–	–	Not Active	Not Active	Not Active	Not Active	Not Active
Cl.NC[C@H]1CC[C@H](C(=O)Oc2ccc(CCC(=O)O)cc2)CC1 [CETRAXATE HYDROCHLORIDE]	Not Active	Not Active	Not Active	Not Active	Not Active	Not Active	Not Active	Not Active	Not Active	Not Active	Not Active	–	–	–	–	–	–	–
O=c1[nH]c2ccccc2c2ccccc12	Not Active	Not Active	Not Active	Not Active	Not Active	Not Active	Not Active	Not Active	Not Active	Not Active	Not Active	–	–	–	–	–	–	–
C[C@H](C(=O)O)c1ccc2oc(-c3ccc(F)cc3)nc2c1 [FLUNOXAPROFEN]	Not Active	Not Active	Not Active	Not Active	Not Active	Not Active	Not Active	Not Active	Not Active	Not Active	Not Active	–	–	–	–	–	–	–
C[N+](C)(C)CCOC(N)=O.[Cl-] [CARBACHOL]	Not Active	Not Active	Not Active	Not Active	Not Active	Not Active	Not Active	Not Active	Not Active	Not Active	Not Active	–	–	–	–	–	–	–
O=C(O)CCc1nc(-c2ccccc2)c(-c2ccccc2)o1 [OXAPROZIN]	Not Active	Not Active	Not Active	Not Active	Not Active	Not Active	Not Active	Not Active	Not Active	Not Active	Not Active	–	–	–	–	–	–	–
CC(=O)[C@]1(O)Cc2c(O)c3c(c(O)c2[C@@H](O[C@H]2C[C@H](N)[C@H](O)[C@H](C)O2)C1)C(=O)c1ccccc1C3=O [IDARUBICIN]	Not Active	Not Active	Not Active	Not Active	Not Active	Not Active	Not Active	Not Active	Not Active	Not Active	Not Active	–	–	–	–	–	–	–
O=C1CN(/N=C/c2ccc([N+](=O)[O-])o2)C(=O)N1 [NITROFURANTOIN]	Not Active	Not Active	Not Active	Not Active	Not Active	Not Active	Not Active	Not Active	Not Active	Not Active	Not Active	–	–	–	–	–	–	–
CARBOXYMETHYLCELLULOSE	Not Active	Not Active	Not Active	Not Active	Not Active	Not Active	Not Active	Not Active	Not Active	Not Active	Not Active	–	–	Not Active	Not Active	Not Active	Not Active	Not Active
